# Laboratory results reported in ChEMBL document CHEMBL1201862, “PubChem BioAssay data set” (2004).
#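 Values below derive from 48-hour exposures of cells grown in 96-well plates, with endpoints linearly interpolated between the two concentrations bracketing the appropriate inhibition level. Here, GI50 denotes the concentration required for 50% inhibition of growth.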 Calls of active or inactive are those of the source. No stated cut-off is given here; in the data, active = GI50 up to about 1.1 µM and inactive = higher.
# Tests used:
# Assay in all cases: inhibition of tumour cell growth, NCI panel, 48 h
# MCF7 = tested on: MCF7
# OVCAR-4 = tested on: OVCAR-4
# NCI-H23 = tested on: NCI-H23
# UO-31 = tested on: UO-31
# CAKI-1 = tested on: CAKI-1
# SNB-75 = tested on: SNB-75
# UACC-257 = tested on: UACC-257
# HCT-116 = tested on: HCT-116
# MOLT-4 = tested on: MOLT-4
# OVCAR-5 = tested on: OVCAR-5
# IGROV-1 = tested on: IGROV-1
# TK-10 = tested on: TK-10
# LOX IMVI = tested on: LOX IMVI
# COLO 205 = tested on: COLO 205
# SF-268 = tested on: SF-268
# NCI/ADR-RES = tested on: NCI/ADR-RES
# OVCAR-3 = tested on: OVCAR-3
# NCI-H522 = tested on: NCI-H522
# NCI-H226 = tested on: NCI-H226
# DU-145 = tested on: DU-145
# NCI-H460 = tested on: NCI-H460
# SF-295 = tested on: SF-295
# SN12C = tested on: SN12C
# HOP-92 = tested on: HOP-92
# SNB-19 = tested on: SNB-19
# SW-620 = tested on: SW-620
# SR = tested on: SR
# 786-0 = tested on: 786-0
# SK-MEL-2 = tested on: SK-MEL-2
# ACHN = tested on: ACHN
# HT-29 = tested on: HT-29
# HOP-62 = tested on: HOP-62
# Hs-578T = tested on: Hs-578T
# SK-MEL-5 = tested on: SK-MEL-5
# U-251 = tested on: U-251
# MDA-N = tested on: MDA-N
# PC-3 = tested on: PC-3
# HCT-15 = tested on: HCT-15
# CCRF-CEM = tested on: CCRF-CEM
# RXF 393 = tested on: RXF 393
# K562 = tested on: K562
# MDA-MB-435 = tested on: MDA-MB-435
# KM12 = tested on: KM12
# SK-MEL-28 = tested on: SK-MEL-28
# A549 = tested on: A549
# EKVX = tested on: EKVX
# HL-60 = tested on: HL-60
# T47D = tested on: T47D
# Malme-3M = tested on: Malme-3M
# BT-549 = tested on: BT-549
# HCC 2998 = tested on: HCC 2998
# OVCAR-8 = tested on: OVCAR-8
# A498 = tested on: A498
# UACC-62 = tested on: UACC-62
# MDA-MB-231 = tested on: MDA-MB-231
# RPMI-8226 = tested on: RPMI-8226
# SK-OV-3 = tested on: SK-OV-3
# M14 = tested on: M14
structure (smiles),measurement,setting,value
CC(=O)CCN1CC2CN=NC2(C#N)C1 (stereo unspecified),GI50,MCF7,35.2 µM (inactive)
same,GI50,OVCAR-4,> 100 µM (inactive)
same,GI50,NCI-H23,> 100 µM (inactive)
same,GI50,UO-31,> 100 µM (inactive)
same,GI50,CAKI-1,0.379 µM (active)
same,GI50,SNB-75,> 100 µM (inactive)
same,GI50,UACC-257,> 100 µM (inactive)
same,GI50,HCT-116,34 µM (inactive)
same,GI50,MOLT-4,14.7 µM (inactive)
same,GI50,OVCAR-5,> 100 µM (inactive)
same,GI50,IGROV-1,> 100 µM (inactive)
same,GI50,TK-10,> 100 µM (inactive)
same,GI50,LOX IMVI,49 µM (inactive)
same,GI50,COLO 205,36.2 µM (inactive)
same,GI50,SF-268,> 100 µM (inactive)
same,GI50,NCI/ADR-RES,> 100 µM (inactive)
same,GI50,OVCAR-3,> 100 µM (inactive)
same,GI50,NCI-H522,1.79 µM (inactive)
same,GI50,NCI-H226,20.7 µM (inactive)
same,GI50,DU-145,> 100 µM (inactive)
same,GI50,NCI-H460,> 100 µM (inactive)
same,GI50,SF-295,> 100 µM (inactive)
same,GI50,SN12C,> 100 µM (inactive)
same,GI50,HOP-92,22.3 µM (inactive)
same,GI50,SNB-19,> 100 µM (inactive)
same,GI50,SW-620,17 µM (inactive)
same,GI50,SR,> 100 µM (inactive)
same,GI50,786-0,36.6 µM (inactive)
same,GI50,SK-MEL-2,> 100 µM (inactive)
same,GI50,ACHN,24.8 µM (inactive)
same,GI50,HT-29,> 100 µM (inactive)
same,GI50,HOP-62,> 100 µM (inactive)
same,GI50,Hs-578T,1.65 µM (inactive)
same,GI50,SK-MEL-5,> 100 µM (inactive)
same,GI50,U-251,> 100 µM (inactive)
same,GI50,MDA-N,75.7 µM (inactive)
same,GI50,PC-3,> 100 µM (inactive)
same,GI50,HCT-15,69 µM
same,GI50,CCRF-CEM,15.9 µM (inactive)
same,GI50,RXF 393,94.4 µM (inactive)
same,GI50,K562,6.7 µM (inactive)
same,GI50,MDA-MB-435,> 100 µM (inactive)
same,GI50,KM12,> 100 µM (inactive)
same,GI50,SK-MEL-28,> 100 µM (inactive)
same,GI50,A549,> 100 µM (inactive)
same,GI50,EKVX,> 100 µM (inactive)
same,GI50,HL-60,14.3 µM (inactive)
same,GI50,T47D,35.6 µM (inactive)
same,GI50,Malme-3M,69.7 µM (inactive)
same,GI50,BT-549,> 100 µM (inactive)
same,GI50,HCC 2998,> 100 µM (inactive)
same,GI50,OVCAR-8,> 100 µM (inactive)
same,GI50,A498,> 100 µM (inactive)
same,GI50,UACC-62,> 100 µM (inactive)
same,GI50,MDA-MB-231,> 100 µM (inactive)
N#CC1(C#N)C(C#N)(C#N)C1(C#N)C(N)=O,GI50,MCF7,> 100 µM (inactive)
same,GI50,OVCAR-4,> 100 µM (inactive)
same,GI50,NCI-H23,> 100 µM (inactive)
same,GI50,UO-31,> 100 µM (inactive)
same,GI50,CAKI-1,> 100 µM (inactive)
same,GI50,UACC-257,> 100 µM (inactive)
same,GI50,HCT-116,> 100 µM (inactive)
same,GI50,MOLT-4,> 100 µM (inactive)
same,GI50,OVCAR-5,> 100 µM (inactive)
same,GI50,IGROV-1,> 100 µM (inactive)
same,GI50,TK-10,> 100 µM (inactive)
same,GI50,LOX IMVI,> 100 µM (inactive)
same,GI50,COLO 205,> 100 µM (inactive)
same,GI50,SF-268,> 100 µM (inactive)
same,GI50,NCI/ADR-RES,> 100 µM (inactive)
same,GI50,NCI-H522,> 100 µM (inactive)
same,GI50,NCI-H226,> 100 µM (inactive)
same,GI50,DU-145,> 100 µM (inactive)
same,GI50,NCI-H460,> 100 µM (inactive)
same,GI50,SF-295,> 100 µM (inactive)
same,GI50,SN12C,> 100 µM (inactive)
same,GI50,HOP-92,> 100 µM (inactive)
same,GI50,SNB-19,> 100 µM (inactive)
same,GI50,SW-620,> 100 µM (inactive)
same,GI50,SR,> 100 µM (inactive)
same,GI50,RPMI-8226,> 100 µM (inactive)
same,GI50,786-0,> 100 µM (inactive)
same,GI50,SK-MEL-2,> 100 µM (inactive)
same,GI50,SK-OV-3,> 100 µM (inactive)
same,GI50,ACHN,> 100 µM (inactive)
same,GI50,HT-29,> 100 µM (inactive)
same,GI50,HOP-62,> 100 µM (inactive)
same,GI50,Hs-578T,> 100 µM (inactive)
same,GI50,SK-MEL-5,> 100 µM (inactive)
same,GI50,U-251,> 100 µM (inactive)
same,GI50,MDA-N,> 100 µM (inactive)
same,GI50,PC-3,> 100 µM (inactive)
same,GI50,HCT-15,> 100 µM
same,GI50,CCRF-CEM,> 100 µM (inactive)
same,GI50,RXF 393,> 100 µM (inactive)
same,GI50,K562,> 100 µM (inactive)
same,GI50,MDA-MB-435,> 100 µM (inactive)
same,GI50,KM12,> 100 µM (inactive)
same,GI50,M14,> 100 µM (inactive)
same,GI50,SK-MEL-28,> 100 µM (inactive)
same,GI50,A549,> 100 µM (inactive)
same,GI50,EKVX,> 100 µM (inactive)
same,GI50,HL-60,> 100 µM (inactive)
same,GI50,T47D,> 100 µM (inactive)
same,GI50,Malme-3M,> 100 µM (inactive)
same,GI50,BT-549,> 100 µM (inactive)
same,GI50,HCC 2998,> 100 µM (inactive)
same,GI50,OVCAR-8,> 100 µM (inactive)
same,GI50,A498,> 100 µM (inactive)
same,GI50,UACC-62,> 100 µM (inactive)
same,GI50,MDA-MB-231,> 100 µM (inactive)
